From patent US11351163B2, “Compositions and methods of treating cancer” (BRISTOL-MYERS SQUIBB COMPANY, priority 2017, dated 2022) come the findings set out here.

SMILES strings stand for the structures.

A short description of data set [1]: Clinical trial of Example 2: safety and tolerability (DLTs, TRAEs), dose escalation and expansion. Type of data set: in vivo. The source says: Purpose: The purpose of the study is to, among other things, determine safety and effectiveness of a compound of Formula I (or salt thereof) when combined with nivolumab and in combination with both nivolumab and ipilimumab in patients with cancers that are advanced or have spread. Pharmacokinetics and pharmacodynamics (including immunomodulatory assays) of a compound of Formula I when combined with nivolumab and in combination with nivolumab and ipilimumab in this patient population will also be assessed.
Primary Outcome Measures: • Safety and tolerability of a compound of Formula I as measured by a composite of the incidence of adverse events (AEs), serious adverse events (SAEs), AEs leading to discontinuation, deaths, and clinical laboratory test abnormalities. The time frame is 100 days after the last dose of study therapy. • Safety of a compound of Formula I plus nivolumab as measured by a composite of the incidence of adverse events (AEs), serious adverse events (SAEs), AEs leading to discontinuation, deaths, and clinical laboratory test abnormalities. The time frame is 100 days after the last dose of study therapy. • Safety of a compound of Formula I plus both nivolumab and ipilimumab as measured by incidence of adverse events (AEs), serious adverse events (SAEs), AEs leading to discontinuation, deaths, and clinical laboratory test abnormalities. The time frame is 100 days after the last dose of study therapy. • Anti-tumor activity of a compound of Formula I administered in combination with nivolumab as measured by the best overall response (BOR) as measured by CT scan. The time frame is approximately 3 years. • Anti-tumor activity of a compound of Formula I administered in combination with nivolumab as measured by the duration of response (DOR) as measured by CT scan. The time frame is approximately 3 years. • Anti-tumor activity of a compound of Formula I administered in combination with nivolumab as measured by progression-free survival rates (PFSRs) as measured by CT scan. The time frame is approximately 3 years. • Anti-tumor activity of a compound of Formula I administered in combination with both nivolumab and ipilimumab as measured by the best overall response (BOR) as measured by CT scan. The time frame is approximately 3 years. • Anti-tumor activity of a compound of Formula I administered in combination with both nivolumab and ipilimumab as measured by the duration of response (DOR) as measured by CT scan. The time frame is approximately 3 years. • Anti-tumor activity of a compound of Formula I administered in combination with both nivolumab and ipilimumab as measured by progression-free survival rates (PFSRs) as measured by CT scan. The time frame is approximately 3 years.
1. Combination Therapy (Dose Escalation). Participants with advanced cancers received a compound of Formula I orally (PO), daily (QD) at a dose of 25 mg, 50 mg, 100 mg or 200 mg for all advanced cancers over a 2 week lead-in period. Participants were then also administered nivolumab intravenously at a dose of 240 mg once every two weeks.
2. Combination Therapy (Dose Expansion). A total of 219 participants with select previously treated advanced malignancies received a compound of Formula I at a dose of 100 or 200 mg orally once daily plus nivolumab at a dose of 240 mg intravenously once every two weeks (Q2W) or at a dose of 480 mg intravenously once every four weeks (Q4W). Advanced malignancies included cervical cancer (21 patients), diffuse large B-cell lymphoma (DLBCL) (4 patients), non-small cell lung cancer (NSCLC) (7 patients), renal cell carcinoma (RCC) (0 patients); squamous cell carcinoma of the head and neck (SCCHN) (16 patients), bladder cancer (18 patients), pancreatic cancer (18 patients), melanoma (21 patients), and ASST, a mixed tumor type cohort consisting of sarcoma, endometrial and breast cancer (19 patients). […]

The next data set has as its system kynurenine. Put plainly: Kynurenine in paired tumor samples and serum of patients (FIG. 1A, 1B). Type of data set: in vivo, human. As to the method:
FIG. 1A illustrates intratumoral kynurenine concentrations at 100 mg, 200 mg or 400 mg of the compound of Formula (I).
FIG. 1B illustrates percent serum kynurenine reduction at 20 mg, 50 mg, 100 mg, 200 mg or 400 mg of the compound of Formula (I).
Dark bars represent a pretreatment kynurenine condition and light bars represent an on-treatment kynurenine (C1D15) condition. Asterisks (*) denotes samples below the lower limit of quantitation.

Data set [2] in a line: Clinical trial of Example 10: safety (TRAEs) and end of treatment disposition. Type of data set: in vivo. The source says:
Primary Outcome Measures: • Safety and tolerability of a compound of Formula I as measured by a composite of the incidence of adverse events (AEs), serious adverse events (SAEs), AEs leading to discontinuation, deaths, and clinical laboratory test abnormalities. The time frame is 100 days after the last dose of study therapy. • Safety of a compound of Formula I plus nivolumab as measured by a composite of the incidence of adverse events (AEs), serious adverse events (SAEs), AEs leading to discontinuation, deaths, and clinical laboratory test abnormalities. […] The time frame is approximately 3 years. • Anti-tumor activity of a compound of Formula I administered in combination with nivolumab as measured by the duration of response (DOR) as measured by CT scan. The time frame is approximately 3 years. • Anti-tumor activity of a compound of Formula I administered in combination with nivolumab as measured by progression-free survival rates (PFSRs) as measured by CT scan. The time frame is approximately 3 years.
1. Combination Therapy (Dose Escalation).
2. Combination Therapy (Dose Expansion). […] Three patients received the compound of Formula I alone. IDO1 inhibitor therapy is not permitted. Prior exposure to immune checkpoint inhibitors or therapy targeting T-cell costimulation requires a washout period of >4 weeks.

[3] abbreviates: patients with advanced bladder cancer.

As for `C[C@@H](C(=O)Nc1ccc(Cl)cc1)[C@H]1CC[C@@H](c2ccnc3ccc(F)cc32)CC1` [compound of Formula I, (R)-N-(4-chlorophenyl)-2-(cis-4-(6-fluoroquinolin-4-yl)cyclohexyl)propanamide], the “# of DLTs/# DLT evaluable” value in data set [1] (25 mg, dose escalation) is reported as 0/7; in data set [1] (50 mg, dose escalation), 0/8; in data set [1] (100 mg, dose escalation) it was 1/9; in data set [1] (200 mg, dose escalation), 3/12; in data set [1] (400 mg, dose escalation), 2/4. In addition, the DLTs entry in data set [1] (400 mg, dose escalation) is “grade 3 AST/ALT; grade 2 anemia, fatigue”. Also, the Maximum tolerated dose in data set [1] (during escalation) was 200 mg. Further, the “reduction in serum kynurenine levels” value in the data set on kynurenine (100 mg once daily, FIG. 1B) is ~60%. Besides, the intratumoral kynurenine entry with kynurenine (39 paired pre- vs on-treatment (C1D15) tumor samples across various tumor types, FIG. 1A) is given as “reduced across all doses”. Moreover, the “tolerability of 100 mg” value in data set [2] (100 mg vs the 200-mg dose, with nivolumab) was “improved tolerability vs the 200-mg dose”. For the same compound, the tolerability entry in data set [2] (setting [3]) is reported as “well tolerated”. Further, in data set [2] (setting [3]), the treatment-related deaths entry is listed as “No treatment-related deaths occurred”.
